Laboratory results reported in PMC7867085, “In Vitro and In Vivo Antitumor Activity of Indolo[2,3-b] Quinolines, Natural Product Analogs from Neocryptolepine Alkaloid” (Molecules, 2021).

What was measured:
[1] = DPPH free radical scavenging assay; conditions: means ± SD (n = 3); amount needed to scavenge 50% of DPPH radicals
Protocol: Over-production and the accumulation of free radicals inside the body leads to a phenomenon known as oxidative stress, which causes many serious diseases such as cancer, cardiovascular, and inflammation. Moreover, the harmful effects of this phenomenon can be reduced via using antioxidant compounds as free radical scavengers. Therefore, free radical scavenging capabilities were determined for all compounds by 2,2-diphenyl-1-picrylhydrazyl (DPPH) assay using ascorbic acid (AA) as standard for comparison. The DPPH reducing capabilities of the synthetic analogs 6a–d were evaluated by determining their IC50 values. […] The IC50 value corresponds to the concentration of a sample, which has the ability to scavenge 50% of the free radicals present in the reaction mixture. Low IC50 values indicate that the compound in the sample has high antioxidant activity. […] At the same time, the analog 6c with pyrimidine moiety had the lowest antioxidant activity (9.2 × 10^−5 µM). […]
To 1 mL of various concentrations of ascorbic acid, neocryptolepine and indoloquinoline analogs prepared from methanol, 1 mL solution of DPPH, 0.1 mM was added. […] After 20 min incubation in the dark, absorbance was recorded at 517 nm. […] The percentage scavenging of the extract was calculated.

[2] = system: Ehrlich ascites carcinoma (EAC) cells; assay: In vitro cytotoxic activity, trypan blue dye exclusion; type: cell-based, mice; conditions: Mus musculus, Ehrlich, 3 h incubation at 37 °C
Protocol: The synthesized indoloquinoline analogs 6a–d were evaluated for their cytotoxic activity against Ehrlich ascites carcinoma (EAC), as depicted in Table 1. The EAC cells used in this study were supplied by National Cancer Institute, Cairo, Egypt. The cells were maintained in vivo in Swiss Albino female mice by intraperitoneal transplantation (0.2 mL of 2 × 10^6 cells/mL). EAC cells were aspirated from the peritoneal cavity of mice, washed with saline and given intraperitoneally to develop ascites tumor. Trypan blue dye exclusion technique was used to figure the viability percentage of EAC cells to assay the cytotoxic activity of the studied compounds. In brief, under completely sterile conditions, EAC cells were separated away from the mice abdomens. Hank’s balanced salt solution (HBSS) was used to wash the separated cells. Cells were put in a cooling centrifuge at 1500 rpm for 15 min; the produced granules were put back into suspension using HBSS, the mentioned steps were done in triplicate. Finally, a measured volume of RPMI 1640 was used to suspend the cells, followed by the addition of 10% fetal bovine serum, 10 µg/mL streptomycin and 100 U/mL penicillin. Consequently, the cell count was adjusted to 2 × 10^6 cells/mL from the prepared diluted cell suspension 0.2 mL was titrated in 96 flat-bottomed tissue culture plates. Serial concentrations of each tested compound were prepared and added in triplicate and incubated at 37 °C for 3 h in a 5% CO2 atmosphere. The IC50 parameter (half-maximum inhibitory concentration) was calculated using Trypan blue dye exclusion test, and then the cytotoxic effect was evaluated using control EAC cells. Thalidomide was used as a reference drug alongside the parent natural compound neocryptolepine I for comparison. Thalidomide was used as a reference drug because its mechanism of action is expected to be similar to the mechanism of action of neocryptolepine analogs as its anticancer action may be based on its antiangiogenic action, resulting from specific DNA intercalation as well as induce cell cycle arrest.
The percentage of EAC cell death of the synthesized derivatives was evaluated by trypan blue exclusion assay. In addition, the compounds 6a–d, as well as the reference drug thalidomide and the parent natural compound neocryptolepine (I), were evaluated through eight concentration levels. It is worth noting that this cytotoxicity was dose-dependent when compared to the reference drug, thalidomide and the control, which was treated with the corresponding dilutions of DMSO.
As a preparation step to perform cytotoxicity assay against the EAC cell line, thalidomide, parent neocryptolepine and the indoloquinoline compounds a 6a, 6b, 6c and 6d were dissolved in DMSO/saline (0.3:0.7) to prepare a solution of 10 mmol concentration. The stock solutions were stored at 4 °C and were used all over the assay. EAC cells were supplied by the National Cancer Institute, Cairo, Egypt. The cells were maintained in vivo in Swiss albino female mice by intraperitoneal transplantation (0.2 mL of 2 × 10^6 cells/mL). EAC cells were aspirated from the peritoneal cavity of mice, washed with saline, and given intraperitoneally to develop ascites tumor.
Trypan blue dye exclusion technique was used to figure the viability percentage of EAC cells to assay the cytotoxic activity of the studied compounds. In brief, under completely sterile conditions, EAC cells were separated away from the mice’s abdomen. Hank’s balanced salt solution (HBSS) was used to wash the separated cells. The cells were put in a cooling centrifuge at 1500 rpm for 15 min; the produced granules were put back into suspension using HBSS, the mentioned steps were done in triplicate. Finally, a measured volume of RPMI 1640 was used to suspend the cells, followed by the addition of 10% fetal bovine serum, 10 µg/mL streptomycin and 100 U/mL penicillin and the cell count was adjusted to 2 × 10^6 cells/mL. […]

[3] = system: solid-tumor (EAC) bearing mice (liver homogenate); assay: Lipid peroxidation and antioxidant enzymes in liver homogenate of solid-tumor bearing mice; type: in vivo, Swiss female albino mice; conditions: 100 mg/kg for 5 days, liver
Protocol: Measuring antioxidant enzyme levels and lipid peroxidation was utilized to evaluate the pharmacological effect of indoloquinoline derivatives. The study group was divided into two subgroups, normal mice and tumor-bearing mice. Each subgroup is further subdivided into two groups, one group received indoloquinoline derivatives, and the other group was marked as a placebo group.
After administration of indoloquinoline analogs 6a, 6b, 6c and 6d at a dose of 100 mg/kg for 5 constitutive days to mice with EAC, the levels of lipid peroxidation were highly significant less than that of the positive control group (p < 0.001). Meanwhile, the level of SOD in the liver homogenate of positive bearing mice was 32.1% (p < 0.001) less than that of the normal group (Table 5).
The eradicated liver was double washed first, with ice-cold normal saline then, with cold 0.15 mol/L Tris-HCl buffer (pH 7.4). The clean organ was dried and weighed, and used to prepare a 10% w/v homogenate in 0.15 mol/L Tris-HCl buffer. A portion of the prepared homogenate was centrifuged at 1500 rpm for 15 min at 4 °C [47] and used for estimating lipid peroxidation, SOD [48] and CAT [49] analysis was carried out using the supernatant.

[4] = system: EAC-induced solid tumor; assay: Antitumor activity: reduction in tumor volume of EAC-induced solid tumor; type: in vivo, Swiss female albino mice; conditions: day 12 (last day of treatment), 100 mg/kg SC daily for five consecutive days
Protocol: The aim of this study is to characterize indoloquinoline analogs 6a–d curative ability and antineoplastic activity on solid-form of Ehrlich tumors. Tumor volume is a potential biomarker for Ehrlich tumor development. The induction of solid tumor in Swiss female mice performed by inserting 0.2 mL of EAC cells (2 × 10^6 cell/mL) subcutaneously (SC) between thighs of the lower limb. When the tumor volume reached 15–20 mm^3 (Seven days after tumor induction), the mice were randomly divided into 6 groups (n = 10), five groups were injected subcutaneously with thalidomide and indoloquinoline analogs 6a–d (100 mg/kg) daily for five consecutive days, the sixth group (positive control group) were given DMSO/saline (0.3/0.7). The 8th day is considered the zero days of treatment. The tumor volume was daily measured with a vernier caliper for four days stated from day eight.
Thalidomide and indoloquinoline derivatives 6a–d were tested for their antitumor effect; the test was done in vivo on mice-bearing solid tumors. The induction of solid tumor in Swiss female mice performed by inserting 0.2 mL of EAC cells (2 × 10^6 cell/mL) subcutaneously (SC) between thighs of the lower limb. Seven days after tumor induction, animals were divided into 6 groups (n = 10), five groups were injected subcutaneously with 100 mg/kg of tested compounds daily for 5 consecutive days, the sixth group (positive control group) were given 0.3 DMSO/0.7 H2O. On day twelve, after carrying out EAC cells, mice were sacrificed, dissected, and change in tumor mass was evaluated by measuring the developed tumor mass volume using the formula [45, 46]:Tumor volume (mm^3) = 0.52 × length × (width)^2.(1)

[5] = system: MG-63 cells; design: method as in PMID 18951804, PMID 2953123; conditions: ref [34],[35]; cited from earlier work

IC50 [1] [nM] | Compound | IC50 [2] [nM] | CAT [3] [KU/mg Tissue/s] | Lipid Peroxidation [3] [nmol MDA/g Tissue] | SOD [3] [U/g Tissue] | reduction percentage in tumor volume [4] [%] | effect on cell cycle [5]
0.042 | O=C1O[C@H]([C@@H](O)CO)C(O)=C1O [Ascorbic acid, ascorbic acid] |  |  |  |  |  | 
 | Cn1c2nc3ccccc3c-2cc2ccccc21 [Neocryptolepine, 5-methyl-5H-indolo[2,3-b] quinoline] | 0.54 |  |  |  |  | 
 | O=C1CCC(N2C(=O)c3ccccc3C2=O)C(=O)N1 (centres unmarked) [Thalidomide, reference compound] | 0.26 | 5.8 ± 1.5 | 330.2 ± 8.1 | 108.4 ± 10.2 | 67.20 | induced cell cycle arrest by increasing the number of cells in the G0/G1 phase and decreasing the percentage of S phase
